Experimental data: US9062041B2 (Bayer Intellectual Property GmbH, priority 2011, dated 2015)

Legend:
Assay type in all cases: cell-based
[1] = target: EP2 subtype of the human PGE2 receptor (Homo sapiens, UniProt P43116); assay: cAMP antagonism test on the human EP2 receptor (HTRF cAMP detection); details: hEP2 receptor, read-out: Antagonism hEP2 IC50
Outline: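 Cells expressing human EP2 preincubated 20 min at RT with compound (0.8 nM–16.5 μM), then stimulated 60 min with PGE2 (3× solution 1.5 nM) in PBS-IBMX. After 20 min lysis, cAMP measured by competitive HTRF with cAMP-d2 and Eu cryptate anti-cAMP antibody (665/620 nm ratio).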

[2] = target: EP4 subtype of the human PGE2 receptor (Homo sapiens, UniProt P35408); assay: cAMP antagonism test on the human EP4 receptor (HTRF cAMP detection); details: selectivity towards hEP4, IC50 measured by cAMP antagonism test
Outline: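 Cells expressing human EP4 preincubated 20 min at RT with compound (0.8 nM–16.5 μM), then stimulated with PGE2 (0.3 nM in 3× solution, with IBMX) 60 min at RT. After lysis, cAMP measured by HTRF competition (665/620 nm ratio); antagonism seen as rise in FRET signal.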

[3] = target: T1, human PGD receptor (Homo sapiens, UniProt Q13258); assay: cAMP antagonism test on the human prostaglandin D receptor (HTRF cAMP detection); details: selectivity towards hDP, IC50 measured by cAMP antagonism test
T1 sequence (Q13258 1-359): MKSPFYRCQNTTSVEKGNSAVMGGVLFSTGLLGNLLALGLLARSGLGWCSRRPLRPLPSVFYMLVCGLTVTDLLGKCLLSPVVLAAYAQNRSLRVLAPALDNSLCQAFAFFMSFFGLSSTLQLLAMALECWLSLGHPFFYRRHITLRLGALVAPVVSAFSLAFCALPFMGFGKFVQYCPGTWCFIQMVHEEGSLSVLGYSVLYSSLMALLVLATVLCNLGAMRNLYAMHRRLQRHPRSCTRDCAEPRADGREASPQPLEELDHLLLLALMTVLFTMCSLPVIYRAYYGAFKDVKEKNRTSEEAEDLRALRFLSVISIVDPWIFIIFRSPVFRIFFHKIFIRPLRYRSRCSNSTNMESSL
Outline: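 Cells pre-mixed with cAMP-d2 were preincubated with compound (0.8 nM–16.5 μM) for 20 min at RT, then stimulated with 3× PGD2 solution (6 nM, in PBS-IBMX) for 30 min at RT. After lysis (20 min), HTRF read at 665/620 nm; antagonism seen as rise in FRET ratio.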

Sequence of EP2 subtype of the human PGE2 receptor (P43116 whole entry): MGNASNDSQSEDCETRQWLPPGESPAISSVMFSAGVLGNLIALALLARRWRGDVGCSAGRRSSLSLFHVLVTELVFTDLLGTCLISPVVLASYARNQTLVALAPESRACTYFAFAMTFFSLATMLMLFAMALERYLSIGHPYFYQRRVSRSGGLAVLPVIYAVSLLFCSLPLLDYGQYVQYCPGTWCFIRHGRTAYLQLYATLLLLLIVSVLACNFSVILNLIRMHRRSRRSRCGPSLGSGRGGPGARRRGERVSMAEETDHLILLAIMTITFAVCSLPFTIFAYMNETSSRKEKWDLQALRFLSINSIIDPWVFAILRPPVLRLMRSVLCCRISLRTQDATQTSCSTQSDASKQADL
Sequence of EP4 subtype of the human PGE2 receptor (P35408 whole entry): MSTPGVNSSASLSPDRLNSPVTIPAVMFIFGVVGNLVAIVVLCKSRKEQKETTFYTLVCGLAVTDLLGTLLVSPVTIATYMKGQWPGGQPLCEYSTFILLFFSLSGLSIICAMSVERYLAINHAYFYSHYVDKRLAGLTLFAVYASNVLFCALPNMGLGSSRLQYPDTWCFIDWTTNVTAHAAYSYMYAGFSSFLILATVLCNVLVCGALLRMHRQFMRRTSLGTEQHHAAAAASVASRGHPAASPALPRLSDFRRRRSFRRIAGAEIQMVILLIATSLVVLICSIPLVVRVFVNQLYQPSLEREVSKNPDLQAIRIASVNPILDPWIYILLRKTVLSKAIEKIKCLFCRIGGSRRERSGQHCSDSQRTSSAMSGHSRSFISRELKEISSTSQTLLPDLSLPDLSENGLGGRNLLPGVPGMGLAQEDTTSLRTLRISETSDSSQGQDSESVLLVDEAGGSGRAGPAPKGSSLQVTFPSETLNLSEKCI

Row | IC50 [1] [nM] | Selectivity hEP2/hEP4 [2] | Selectivity hEP2/hDP [3] | Structure (SMILES)
1 | 27.8 | xxx (xxx > 100) | xxx (xxx > 100) | Cc1c(C(=O)NCC(F)(F)F)ccc2nn(CC3CCN(C(=O)c4ccc(Oc5ccc(F)c(F)c5)cc4)CC3)cc12 [Example 314, 2-({1-[4-(3,4-difluorophenoxy)benzoyl]piperidin-4-yl}methyl)-4-methyl-N-(2,2,2-trifluoroethyl)-2H-indazol-5-carboxamide]
2 | 43 | xxx (xxx > 100) | xxx (xxx > 100) | Cc1c(C(=O)NCC(F)(F)F)ccc2nn(CC3CCN(C(=O)c4ccc(-c5ccc(C(F)(F)F)cc5)cc4)CC3)cc12 [Example 315, 4-methyl-N-(2,2,2-trifluoroethyl)-2-[(1-{[4′-(trifluoromethyl)biphenyl-4-yl]-carbonyl}piperidin-4-yl)methyl]-2H-indazol-5-carboxamide]
3 | 79 | xxx (xxx > 100) | xxx (xxx > 100) | Cc1c(C(=O)NCC(F)(F)F)ccc2nn(CC3CCN(C(=O)c4ccc(Br)cc4)CC3)cc12 [Example 316, 2-{[1-(4-bromobenzoyl)piperidin-4-yl]methyl}-4-methyl-N-(2,2,2-trifluoro-ethyl)-2H-indazol-5-carboxamide]
4 | 181 | xx (xx: 10-100) | xx (xx: 10-100) | Cc1c(C(=O)NCC(F)(F)F)ccc2nn(CC3CCN(C(=O)c4ccc(-c5ccc(Cl)cn5)cc4)CC3)cc12 [Example 317, 2-({1-[4-(5-chloropyridin-2-yl)benzoyl]piperidin-4-yl}methyl)-4-methyl-N-(2,2,2-trifluoroethyl)-2H-indazol-5-carboxamide]
5 | 26.3 | xxx (xxx > 100) | xxx (xxx > 100) | COc1ccc(-c2ccc(C(=O)N3CCC(Cn4cc5c(C)c(C(=O)NCC(F)(F)F)ccc5n4)CC3)cc2)c(C)c1 [Example 318, 2-({1-[(4′-methoxy-2′-methylbiphenyl-4-yl)carbonyl]piperidin-4-yl}methyl)-4-methyl-N-(2,2,2-trifluoroethyl)-2H-indazol-5-carboxamide]
6 | 315 | xx (xx: 10-100) | xx (xx: 10-100) | Cc1ccc(-c2ccc(C(=O)N3CCC(Cn4cc5c(C)c(C(=O)NCC(F)(F)F)ccc5n4)CC3)cc2)cn1 [Example 319, 4-methyl-2-({1-[4-(6-methylpyridin-3-yl)benzoyl]piperidin-4-yl}methyl)-N-(2,2,2-trifluoroethyl)-2H-indazol-5-carboxamide]
7 | 15.6 | xxx (xxx > 100) | xxx (xxx > 100) | COc1cc(F)ccc1-c1ccc(C(=O)N2CCC(Cn3cc4c(C)c(C(=O)NCC(F)(F)F)ccc4n3)CC2)cc1 [Example 320, 2-({1-[(4′-fluoro-2′-methoxybiphenyl-4-yl)carbonyl]piperidin-4-yl}methyl)-4-methyl-N-(2,2,2-trifluoroethyl)-2H-indazol-5-carboxamide]
8 | 101 | xxx (xxx > 100) | xxx (xxx > 100) | Cc1c(C(=O)NCC(F)(F)F)ccc2nn(CC3CCN(C(=O)c4ccc(-c5ccc(C(F)(F)F)nc5)cc4)CC3)cc12 [Example 321, 4-methyl-N-(2,2,2-trifluoroethyl)-2-[(1-{4-[6-(trifluoromethyl)pyridin-3-yl]-benzoyl}piperidin-4-yl)methyl]-2H-indazol-5-carboxamide]
9 | 76.2 | xxx (xxx > 100) | xxx (xxx > 100) | COc1ccc(-c2ccc(C(=O)N3CCC(Cn4cc5c(C)c(C(=O)NCC(F)(F)F)ccc5n4)CC3)cc2)cn1 [Example 322, 2-({1-[4-(6-methoxypyridin-3-yl)benzoyl]piperidin-4-yl}methyl)-4-methyl-N-(2,2,2-trifluoroethyl)-2H-indazol-5-carboxamide]

The next lines start with the molecule.

Row | Structure (SMILES) | IC50 [1] [nM] | Selectivity hEP2/hEP4 [2] | Selectivity hEP2/hDP [3]
10 | Cc1c(C(=O)NCC(F)(F)F)ccc2nn(CC3CCN(C(=O)c4nc5ccccc5s4)CC3)cc12 [Example 302, 2-{[1-(benzothiazol-2-ylcarbonyl)piperidin-4-yl]methyl}-4-methyl-N-(2,2,2-trifluoroethyl)-2H-indazol-5-carboxamide] | 131 | xxx (xxx > 100) | xxx (xxx > 100)
11 | Cc1c(C(=O)NCC(F)(F)F)ccc2nn(CC3CCN(C(=O)c4ccc(Oc5cccc(C(F)(F)F)n5)cc4)CC3)cc12 [Example 304, 4-methyl-N-(2,2,2-trifluoroethyl)-2-{[1-(4-{[6-(trifluoromethyl)pyridin-2-yl]-oxy}benzoyl)piperidin-4-yl]methyl}-2H-indazol-5-carboxamide] | 99.8 | xxx (xxx > 100) | xxx (xxx > 100)
12 | Cc1c(C(=O)NCC(F)(F)F)ccc2nn(CC3CCN(C(=O)c4nc(-c5ccccc5)no4)CC3)cc12 [Example 305, 4-methyl-2-({1-[(3-phenyl-1,2,4-oxadiazol-5-yl)carbonyl]piperidin-4-yl}methyl)-N-(2,2,2-trifluoroethyl)-2H-indazol-5-carboxamide] | 301 | xx (xx: 10-100) | xx (xx: 10-100)
13 | Cc1c(C(=O)NCC(F)(F)F)ccc2nn(CC3CCN(C(=O)c4ccc(Oc5ccc(C#N)cc5)cc4)CC3)cc12 [Example 306, 2-({1-[4-(4-cyanophenoxy)benzoyl]piperidin-4-yl}methyl)-4-methyl-N-(2,2,2-trifluoroethyl)-2H-indazol-5-carboxamide] | 76.6 | xxx (xxx > 100) | xxx (xxx > 100)
14 | Cc1c(C(=O)NCC(F)(F)F)ccc2nn(CC3CCN(C(=O)c4ccc(Oc5cccc(F)c5)cc4)CC3)cc12 [Example 307, 2-({1-[4-(3-fluorophenoxy)benzoyl]piperidin-4-yl}methyl)-4-methyl-N-(2,2,2-trifluoroethyl)-2H-indazol-5-carboxamide] | 30.6 | xxx (xxx > 100) | xxx (xxx > 100)
15 | Cc1c(C(=O)NCC(F)(F)F)ccc2nn(CC3CCN(C(=O)c4ccc(Oc5cccc(C(F)(F)F)c5)cc4)CC3)cc12 [Example 308, 4-methyl-N-(2,2,2-trifluoroethyl)-2-[(1-{4-[3-(trifluoromethyl)phenoxy]-benzoyl}piperidin-4-yl)methyl]-2H-indazol-5-carboxamide] | 22.2 | xxx (xxx > 100) | xxx (xxx > 100)
16 | Cc1c(C(=O)NCC(F)(F)F)ccc2nn(CC3CCN(C(=O)c4ncc(-c5ccccc5)o4)CC3)cc12 [Example 309, 4-methyl-2-({1-[(5-phenyloxazol-2-yl)carbonyl]piperidin-4-yl}methyl)-N-(2,2,2-trifluoroethyl)-2H-indazol-5-carboxamide] | 66 | xxx (xxx > 100) | xxx (xxx > 100)
17 | Cc1c(C(=O)NCC(F)(F)F)ccc2nn(CC3CCN(C(=O)c4ccc(Oc5ccc(C#N)cn5)cc4)CC3)cc12 [Example 310, 2-[(1-{4-[(5-cyanopyridin-2-yl)oxy]benzoyl}piperidin-4-yl)methyl]-4-methyl-N-(2,2,2-trifluoroethyl)-2H-indazol-5-carboxamide] | 806 | xx (xx: 10-100) | xx (xx: 10-100)
18 | Cc1c(C(=O)NCC(F)(F)F)ccc2nn(CC3CCN(C(=O)c4ccc(Oc5ccc(Cl)cn5)cc4)CC3)cc12 [Example 311, 2-[(1-{4-[(5-chloropyridin-2-yl)oxy]benzoyl}piperidin-4-yl)methyl]-4-methyl-N-(2,2,2-trifluoroethyl)-2H-indazol-5-carboxamide] | 84.1 | xxx (xxx > 100) | xxx (xxx > 100)
19 | Cc1c(C(=O)NCC(F)(F)F)ccc2nn(CC3CCN(C(=O)c4ccc(-c5ccc(C(F)(F)F)cn5)cc4)CC3)cc12 [Example 312, 4-methyl-N-(2,2,2-trifluoroethyl)-2-[(1-{4-[5-(trifluoromethyl)pyridin-2-yl]-benzoyl}piperidin-4-yl)methyl]-2H-indazol-5-carboxamide] | 158 | xxx (xxx > 100) | xxx (xxx > 100)
20 | Cc1c(C(=O)NCC(F)(F)F)ccc2nn(CC3CCN(C(=O)c4ccc(Oc5ccc(F)cc5F)cc4)CC3)cc12 [Example 313, 2-({1-[4-(2,4-difluorophenoxy)benzoyl]piperidin-4-yl}methyl)-4-methyl-N-(2,2,2-trifluoroethyl)-2H-indazol-5-carboxamide] | 89.4 | xxx (xxx > 100) | xxx (xxx > 100)
